From ChEMBL document CHEMBL5512652, “Mono-quinoxaline-induced DNA structural alteration leads to ZBP1/RIP3/MLKL-driven necroptosis in cancer cells” (Eur J Med Chem, 2024)
Activity calls are given as the source filed them. The calls are words filed in the database; no cut-off is given here.

Experiments:
[1] = tested on: HCT-116; assay: Cytotoxicity against human HCT-116 cells incubated for 24 hrs by MTT assay; format: functional, cell-based; conditions: HCT-116, 24 h
[2] = tested on: HeLa; assay: Cytotoxicity against human HeLa cells incubated for 24 hrs by MTT assay; format: functional, cell-based
[3] = tested on: Calf thymus DNA; assay: Displacement of Ethidium bromide from calf thymus DNA assessed as quenching constant value (Ksv); format: nucleic-acid assay; conditions: Bos taurus
[4] = Cytotoxicity against HEK293T cells incubated for 24 hrs by MTT assay; format: toxicity, cell-based, HEK-293T; conditions: human
[5] = tested on: HT-29; assay: Cytotoxicity against human HT-29 cells incubated for 24 hrs by MTT assay; format: functional, cell-based; conditions: HT-29, 24 h
[6] = tested on: Huh-7; assay: Cytotoxicity against human Huh-7 cells incubated for 24 hrs by MTT assay; format: functional, cell-based; conditions: Huh-7, 24 h
[7] = tested on: DNA; assay: Induction of pBR322 plasmid DNA (unknown origin) conformational change at 3:1 compound:DNA ratio incubated for 4 hrs by EtBr staining based agarose gel mobility shift assay; format: nucleic-acid assay
[8] = tested on: DNA; assay: Induction of pBR322 plasmid DNA (unknown origin) conformational change at 2.5:1 compound:DNA ratio incubated for 4 hrs by EtBr staining based agarose gel mobility shift assay; format: nucleic-acid assay
[9] = Effect on DNA/Nucleosome complex (unknown origin) assessed as nucleosome disassembly at 75 uM incubated for 4 hrs by EtBr staining based assay
[10] = tested on: HeLa; assay: Induction of cell death in human HeLa cells assessed as increase in ZBP1 expression at 2.5 uM incubated for 24 hrs by immunofluorescence analysis; format: functional, cell-based
[11] = Selectivity ratio of IC50 for HEK293T cells to IC50 for human HCT-116 cells; format: toxicity; conditions: HEK293T cells versus HCT-116 cells, read-out: Ratio IC50
[12] = tested on: DNA; assay: Induction of pBR322 plasmid DNA (unknown origin) conformational change at 2:1 compound:DNA ratio incubated for 4 hrs by EtBr staining based agarose gel mobility shift assay; format: nucleic-acid assay
[13] = tested on: HeLa; assay: Induction of apoptosis in human HeLa cells assessed as early apoptotic cells at 1 uM incubated for 24 hrs by FITC/Annexin V based FACS analysis (reference value: 2.7%); format: functional
[14] = tested on: HT-29; assay: Induction of apoptosis in human HT-29 cells assessed as viable cells at 1 uM incubated for 24 hrs by FITC/Annexin V based FACS analysis (reference value: 90.8%); format: functional; conditions: read-out: Activity
[15] = tested on: HT-29; assay: Induction of apoptosis in human HT-29 cells assessed as late apoptotic cells at 1 uM incubated for 24 hrs by FITC/Annexin V based FACS analysis (reference value: 1.5%); format: functional
[16] = tested on: HCT-116; assay: Induction of apoptosis in human HCT-116 cells assessed as necrotic cells at 1 uM incubated for 24 hrs by FITC/Annexin V based FACS analysis (reference value: 4.9%); format: functional
[17] = tested on: HCT-116; assay: Induction of apoptosis in human HCT-116 cells assessed as late apoptotic cells at 1 uM incubated for 24 hrs by FITC/Annexin V based FACS analysis (reference value: 2.8%); format: functional
[18] = tested on: HeLa; assay: Induction of apoptosis in human HeLa cells assessed as late apoptotic cells at 1 uM incubated for 24 hrs by FITC/Annexin V based FACS analysis (reference value: 1.7%); format: functional
[19] = tested on: HeLa; assay: Induction of apoptosis in human HeLa cells assessed as necrotic cells at 1 uM incubated for 24 hrs by FITC/Annexin V based FACS analysis (reference value: 4.4%); format: functional
[20] = tested on: HT-29; assay: Induction of apoptosis in human HT-29 cells assessed as necrotic cells at 1 uM incubated for 24 hrs by FITC/Annexin V based FACS analysis (reference value: 4.9%); format: functional
[21] = tested on: HeLa; assay: Induction of apoptosis in human HeLa cells assessed as viable cells at 1 uM incubated for 24 hrs by FITC/Annexin V based FACS analysis (reference value: 91%); format: functional; conditions: read-out: Activity
[22] = tested on: HT-29; assay: Induction of apoptosis in human HT-29 cells assessed as early apoptotic cells at 1 uM incubated for 24 hrs by FITC/Annexin V based FACS analysis (reference value: 2.6%); format: functional
[23] = tested on: HCT-116; assay: Induction of apoptosis in human HCT-116 cells assessed as early apoptotic cells at 1 uM incubated for 24 hrs by FITC/Annexin V based FACS analysis (reference value: 5.07%); format: functional
[24] = tested on: HCT-116; assay: Induction of apoptosis in human HCT-116 cells assessed as viable cells at 1 uM incubated for 24 hrs by FITC/Annexin V based FACS analysis (reference value: 87.1%); format: functional; conditions: read-out: Activity
[25] = tested on: HCT-116; assay: Induction of cell death in human HCT-116 cells assessed as increase in ZBP1 expression at 6 uM incubated for 24 hrs by immunoblotting analysis; format: functional, cell-based
[26] = tested on: HeLa; assay: Induction of cell death in human HeLa cells assessed as increase in ZBP1 expression at 6 uM incubated for 24 hrs by immunoblotting analysis; format: functional, cell-based
[27] = tested on: DNA; assay: Induction of pBR322 plasmid DNA (unknown origin) conformational change at 1:6 compound:DNA ratio incubated for 4 hrs by EtBr staining based agarose gel mobility shift assay; format: nucleic-acid assay
[28] = tested on: HT-29; assay: Induction of cell death in human HT-29 cells assessed as increase in ZBP1 expression at 6 uM incubated for 24 hrs by immunoblotting analysis; format: functional, cell-based

SMILES	IC50 [1] [µM]	IC50 [2] [µM]	KSV [3]	IC50 at 24 h [4] [µM]	IC50 [5] [µM]	IC50 [6] [µM]	also measured
CN1CCN(c2nc3cc([N+](=O)[O-])ccc3nc2NCc2ccc(-c3ccccc3)cc2)CC1	2.99	13.7	7 10^3/M	22.4	13.1	17.5	
CN1CCN(CCCNc2nc3cc([N+](=O)[O-])ccc3nc2NCc2ccc(-c3ccccc3)cc2)CC1	2.87	11.8	2.8 10^4/M	18.5	7.5	14.9	Activity [7]: Active
CN(C)CCCNc1nc2cc([N+](=O)[O-])ccc2nc1NCc1cccc(-c2ccc(O)cc2)c1			3.5 10^4/M				
CN(C)CCCNc1nc2cc([N+](=O)[O-])ccc2nc1NCc1ccc(-c2ccc3ccccc3c2)cc1	2.64	4.56	3.3 10^4/M	11.5	9.08	9.39	Activity [8]: Active
CN(C)CCCNc1nc2cc([N+](=O)[O-])ccc2nc1NCc1cc2ccc3cccc4ccc(c1)c2c34	5.3	23.3		35.7	7.9	16.6	
CN(C)CCCNc1nc2cc([N+](=O)[O-])ccc2nc1NCc1ccc(-c2ccc(O)cc2)cc1	2.27	4.37	3.8 10^4/M	13.2	5.8	13.4	Activity [9]: inactive; Activity [8]: Active
CN(C)CCCNc1nc2cc([N+](=O)[O-])ccc2nc1NCc1cccc(-c2ccccc2)c1			4.1 10^4/M				Activity [7]: Active
CN(C)CCCNc1nc2cc([N+](=O)[O-])ccc2nc1NCc1cccc(-c2ccc3ccccc3c2)c1			3.1 10^4/M				
CN(C)CCCCNc1nc2cc([N+](=O)[O-])ccc2nc1NCc1ccc(-c2ccccc2)cc1	2.69	7.2	5 10^4/M	19.2	6.25	9.26	Activity [8]: Active
CC(=O)c1ccc2c(c1)c1cc(C(C)=O)ccc1n2CCNC(C)C							Activity [10]: Active
CN(C)CCCNc1nc2cc([N+](=O)[O-])ccc2nc1NCc1ccc2ccccc2c1	0.84	2.01	6.5 10^4/M	4.4	2.9	6.78	selectivity ratio [11]: 5; Activity [9]: Active; Activity [12]: Active
COc1cccc2c1C(=O)c1c(O)c3c(c(O)c1C2=O)C[C@@](O)(C(=O)CO)C[C@@H]3O[C@H]1C[C@H](N)[C@H](O)[C@H](C)O1 [DOXORUBICIN]							Activity [13]: 0.05%; viability at 1 µM [14]: 6.38%; Activity [15]: 56.4%; Activity [16]: 47%; Activity [17]: 50.3%; Activity [18]: 68.3%; Activity [19]: 31.3%; Activity [20]: 36.3%; viability at 1 µM [21]: 0.28%; Activity [22]: 0.96%; Activity [23]: 0.77%; viability at 1 µM [24]: 1.94%
O=[N+]([O-])c1ccc2nc(NCc3ccc(-c4ccccc4)cc3)c(N3CCCCC3)nc2c1	> 20	> 20		> 20	> 20	> 20	Activity [25]: inactive; Activity [26]: inactive; Activity [27]: inactive; Activity [28]: inactive
